Data from patent US20140309295A1, “ANTIEPILEPTIC, HYPOCHOLESTEROLEMIC AND NEUROPROTECTIVE COMPOUND” (NEURON BIOPHARMA, S.A., priority 2009, published 2014).

Key:
[1] = system: Candida albicans CECT 1002; test: Fungicidal activity bioassay (growth inhibition halos); assay type: cell-based; conditions: β-hydroxy acid form
Method: The fungicidal activity of NST0037 was analyzed by means of bioassay against Candida albicans. […] The assayed concentrations were the following: 2, 1.5, 1, 0.5, 0.25, 0.125, 0.06, 0.025 and 0.01 mM. Plates of MA medium (containing per liter: 20 g malt extract, 20 g glucose, 1 g mycopeptone and 10 g agar) previously inoculated with a culture of Candida albicans CECT (Spanish Type-Culture Collection) 1002 were prepared. With aid of a die (6 mm in diameter) various wells were prepared in which 40 μL of the previous solutions were deposited. The study was performed in triplicate and triplicates for each compound and concentration were included in each plate. The plates were kept at 4° C. for 1 hour and were subsequently incubated at 28° C. overnight. The presence of antifungal activity was determined by means of the formation of C. albicans growth inhibition halos.

[2] = system: FVB/NHan mice inoculated with kainate (KA); test: Neuropathological signs in hippocampus after kainate (MAP2, HNE, T.U.N.E.L., GFAP); assay type: in vivo; conditions: for neuritic dystrophy (MAP2 labeling) in hippocampus: 50 mg/kg i.p., 7 days
Method: All the animals included for the experimental process were 12-week old males of the FVB/NHan strain. The experiments were conducted strictly following the Guidance on the Operation of Animals (Scientific Procedures, Act. 1986). The animals had their respective quarantine period and were treated with maximum precaution to minimize possible contaminations during inoculations and handling.
Twenty-five animals were used in this assay and the treatments were all conducted by intraperitoneal (i.p.) route with a volume of 100 μl, according to the following regimens: • i) PBS+PBS+PBS regimen: 4 animals were initially treated with PBS with a daily dose for 2 days, on the second day the animals were inoculated with a new dose of PBS and for the next 7 days with a daily dose of PBS. • ii) NST0037+KA+NST0037 regimen: 7 animals were initially treated with a daily dose for 2 days with NST0037 at 50 mg/kg, on the second day the animals were inoculated with a dose of kainate at 25 mg/Kg and for the next 7 days with a daily dose of NST0037 at 50 mg/kg. • iii) PBS+KA+PBS regimen: 7 animals were initially treated with PBS with a daily dose for 2 days, on the second day the animals were inoculated with a dose of kainate at 25 mg/Kg and for the next 7 days with a daily dose of PBS. • iv) PBS+KA+NST0037 regimen: 7 animals were initially treated with PBS with a daily dose for 2 days, on the second day the animals were inoculated with a dose of kainate at 25 mg/Kg and for the next 7 days with a daily dose of NST0037 at 50 mg/kg.
Once the treatment time of 7 days ended, the animals were sacrificed and the brains were dissected. The brain samples were processed and included in paraffin. For the analysis of neuritic dystrophy in the hippocampus, bright field immunochemistry against microtubule associated protein type 2 (MAP2) was performed in 5 μm thick coronal sections.
Once the treatment time of 7 days ended, the animals were sacrificed and the brains were dissected. The brain samples were processed and included in paraffin. For the analysis of oxidative damage due to lipid peroxidation in the hippocampus, bright field immunochemistry against 4-hydroxynonenal (HNE) was performed in 5 μm thick coronal sections.
Once the treatment time of 7 days ended, the animals were sacrificed and the brains were dissected. The brain samples were processed and included in paraffin. For the analysis of the presence of neurons in apoptosis in the hippocampus, the T.U.N.E.L. (TdT-mediated dUTP nick end labeling) fluorescence technique was performed in 5 μm thick coronal sections.
Once the treatment time of 7 days ended, the animals were sacrificed and the brains were dissected. The brain samples were processed and included in paraffin. The analysis of reactive astrogliosis was performed by means of bright field immunochemistry against Glial fibrillary acidic protein (GFAP) in 5 μm thick coronal sections, which protein is present in astrocytes.

Zucker rats = test: Hypolipidemic effect in genetically obese Zucker rats, oral 7 days; assay type: in vivo; conditions: 30 mg/kg oral
Method: All the animals included for the experimental process were 11 week-old male Zucker rats. The experiments were conducted strictly following the Guidance on the Operation of Animals (Scientific Procedures, Act. 1986). The animals had their respective quarantine period and were treated with maximum precaution to minimize possible contaminations for inoculations and handling.
After a conditioning to the diet, 30 mg/kg of NST0021 or NST0037 were orally administered to the […] at the same time (15.00 to 18.00 h) for 7 consecutive days, using in both cases 0.5% carboxy methylcellulose in water as a vehicle. The control group received this same vehicle. Before starting the treatments and at 7 days therefrom, blood was extracted by lingual puncture under anesthesia after fasting for 16 hours. The plasma was obtained from said blood, in which the total cholesterol, HDL-c, LDL-c, VLDL-c, and triglyceride (TG) levels were evaluated by enzymatic and spectrophotometric techniques. In order to check if the effect at the lipid level involved an alteration of the oxidative stress, the redox state in the plasmas obtained was furthermore evaluated by means of the TEAC (Trolox Antioxidant Capacity Assay) technique. This technique determines the antioxidant capacity in vitro, giving an idea of the redox state of the sample analyzed by means of the absorbance capacity by electron transfer. The different components of the reaction, myoglobin, ABTS (2,2-azino-bis-(3-ethylbenzthiazoline-sulfonic acid) and hydrogen peroxide were added to the plasmas diluted 1/10 in PBS (10 μL) in a 96-well plate. After 3 minutes of incubation, the absorbance was measured at 405 nm (with a reference of 600 nm).

seladin-1/DHCR24 gene = seladin-1/DHCR24 gene expression in brain of wild-type mice; assay type: in vivo; conditions: 50 mg/kg oral, 4 hours, male C57BL6 mice
Method: A control group received only the vehicle, which consisted of 0.25% carboxy methylcellulose in physiological saline. 4 hours after the oral administrations, the animals were sacrificed under gas anesthesia with isoflurane and the brains, previously perfused with PBS, were removed and immediately afterwards frozen in liquid nitrogen. Subsequently, the total RNA of the brain was extracted by means of the High Pure RNA Isolation kit (Roche) and the amount and quality of the RNA were analyzed by means of spectrophotometry (Infinite 200 with NanoQuant, Tecan) and viewing of the 18S and 28S bands by means of electrophoresis. The RT-PCR was performed by means of two steps, first, the mRNA was changed to cDNA using the RNA to cDNA kit (Applied Biosystem) and the gene expression was subsequently analyzed by means of TagMan probes using the validated probes Mn00519071_m1 for seladin-1/DHCR24 and Hs99999901_s1 for 18S (used to normalize the results) in the 7500 Fast Real-Time PCR System equipment (Applied Biosystem). The relative amount of the gene expression was determined by using the ΔΔCt method with the SDS v2.1.1 software (Applied Biosystem); the expression of 18S was used to normalize the measurement.

## CCC(CC)C(=O)O[C@H]1C[C@@H](C)C=C2C=C[C@H](C)[C@H](CC[C@@H]3C[C@@H](O)CC(=O)O3)[C@H]21 [NST0037, (1S,2S,6R,8S,8aR)-1,2,6,7,8,8a-hexahydro-3,7-dimethyl-8-[2-[(2R,4R)-tetrahydro-4-hydroxy-6-oxo-2H-pyran-2-yl]ethyl]-1-naphthalenyl-2-ethyl-butyrate]
[1]; 0.06 and 0.025 mM
  inhibition halos at lower concentrations: the only one capable of causing inhibition halos
[1]; 2 to 0.01 mM
  antifungal activity (inhibition halos): higher antifungal activity than the statins included in the assay
[2]; NST0037+KA+NST0037 regimen
  apoptosis (T.U.N.E.L.) in hippocampus: did not show neurons positive for T.U.N.E.L.
  oxidative damage (HNE labeling) in hippocampus: without HNE-labeled neurons
  reactive astrogliosis (GFAP) in hippocampus: astrocyte pattern very similar to that of the controls
  neuritic dystrophy (MAP2 labeling) in hippocampus: without evidence of neuritic dystrophy
[2]; PBS+KA+NST0037 regimen
  apoptosis (T.U.N.E.L.) in hippocampus: reduces the number of neurons in apoptosis to a few isolated cells
  oxidative damage (HNE labeling) in hippocampus: reduces the number of HNE-labeled neurons
  reactive astrogliosis (GFAP) in hippocampus: reduces the number of astrocytes and the intensity of the GFAP labeling
  neuritic dystrophy (MAP2 labeling) in hippocampus: clearly reduces the loss of MAP2 labeling
Zucker rats
  HDL: increase of HDL
  oxidative stress (redox state in plasma, TEAC): drastic reduction
  plasma triglyceride levels: reduced the plasma triglyceride levels
Zucker rats; male Zucker rats
  plasma LDL levels: equally reducing the plasma LDL levels
seladin-1/DHCR24 gene
  seladin-1/DHCR24 gene expression in brain: increased the gene expression
